# Source: PubChem BioAssay AID278 (DTP/NCI, 2004)
# Several values for one entry are separate records, joined by “and”; a condition that tells them apart may be missing. Equal entries are not always repeated. Records with an inconclusive call do not appear.
# System: nude mice, A549 intrarenal xenograft, tumor weight change
# Experiment: NCI In Vivo Anticancer Drug Screen. Data for tumor model A549 Human Adenocarcinoma of Lung with characteristics of Type II Alveolar Epithelial cells (intrarenal inoculation) in NU/NU BALB/C (nude) mice
# Settings: endpoint: mean tumor weight change, schedule: Q04DX003 (ip), higher = larger tumour
# Description: The antitumor activity of compounds was measured in mice bearing transplantable tumors. Survival or tumor size were measured and the results are expressed as the measurement made in the treated group (T) divided by the measurement made in the vehicle treated control group (C). The tumor model used in this assay is A549 Human Adenocarcinoma of Lung with characteristics of Type II Alveolar Epithelial cells (intrarenal inoculation) in NU/NU BALB/C (nude) mice
# [1] = dose: 12.5 mg/kg/injection, vehicle: saline
# [2] = dose: 25.0 mg/kg/injection, vehicle: saline
# [3] = dose: 75.0 mg/kg/injection, vehicle: saline with Tween-80
# [4] = dose: 150.0 mg/kg/injection, vehicle: saline with Tween-80
# [5] = dose: 300.0 mg/kg/injection, vehicle: saline with Tween-80
# [6] = dose: 150.0 mg/kg/injection, vehicle: Klucel (hydroxypropylcellulose) (HPC)
# [7] = dose: 150.0 mg/kg/injection, vehicle: water
# [8] = dose: 50.0 mg/kg/injection, vehicle: saline with Tween-80
# [9] = dose: 100.0 mg/kg/injection, vehicle: saline with Tween-80
# [10] = dose: 200.0 mg/kg/injection, vehicle: saline with Tween-80
# [11] = dose: 25.0 mg/kg/injection, vehicle: saline with Tween-80
# [12] = dose: 4.0 mg/kg/injection, vehicle: saline with Tween-80
structure (smiles),measurement,setting,value
COc1cccc2c1C(CO)N1C(C#N)C3CC(C(=O)O)C(C1C2)N3C (configuration not stated),T/C,"dose: 3.75 mg/kg/injection, vehicle: saline",24 % of control
same,T/C,"dose: 6.25 mg/kg/injection, vehicle: saline",32 % of control
same,T/C,"dose: 7.5 mg/kg/injection, vehicle: saline with Tween-80",64 % of control
same,T/C,"dose: 7.5 mg/kg/injection, vehicle: saline",73 % of control
same,T/C,[1],76 % of control
same,T/C,"dose: 15.0 mg/kg/injection, vehicle: saline with Tween-80",57 % of control
same,T/C,"dose: 15.0 mg/kg/injection, vehicle: saline",59 % of control
same,T/C,[2],33 % of control
same,T/C,"dose: 30.0 mg/kg/injection, vehicle: saline with Tween-80",59 % of control
same,T/C,"dose: 30.0 mg/kg/injection, vehicle: saline",39 % of control
same,T/C,"dose: 50.0 mg/kg/injection, vehicle: saline",52 % of control
same,T/C,"dose: 60.0 mg/kg/injection, vehicle: saline",17 % of control
C=CCNC(=O)c1ccccc1SC(C)=O,T/C,[3],104 % of control
same,T/C,[4],94 % of control
same,T/C,[5],96 % of control
same,T/C,"dose: 450.0 mg/kg/injection, vehicle: saline with Tween-80",61 % of control
O=C1CC2(C(=O)N1CN1CCOCC1)c1ccccc1-c1ccccc12,T/C,[6],36 % of control
same,T/C,"dose: 216.0 mg/kg/injection, vehicle: Klucel (hydroxypropylcellulose) (HPC)",21 % of control
same,T/C,"dose: 300.0 mg/kg/injection, vehicle: Klucel (hydroxypropylcellulose) (HPC)",28 % of control
same,T/C,"dose: 360.0 mg/kg/injection, vehicle: Klucel (hydroxypropylcellulose) (HPC)",23 % of control
same,T/C,"dose: 600.0 mg/kg/injection, vehicle: Klucel (hydroxypropylcellulose) (HPC)",11 % of control
Cc1nc(C(Cl)(Cl)Cl)[nH]c(=O)c1SCCO,T/C,"dose: 150.0 mg/kg/injection, vehicle: distilled water + Tween-80 + alcohol",31 % of control
same,T/C,"dose: 150.0 mg/kg/injection, vehicle: distilled water + alcohol",50 % of control
same,T/C,"dose: 300.0 mg/kg/injection, vehicle: distilled water + Tween-80 + alcohol",181 % of control
same,T/C,"dose: 300.0 mg/kg/injection, vehicle: distilled water + alcohol",26 % of control
same,T/C,"dose: 600.0 mg/kg/injection, vehicle: distilled water + alcohol",2 % of control
CC(=O)NO,T/C,[7],83 % of control
same,T/C,"dose: 300.0 mg/kg/injection, vehicle: water",82 % of control
same,T/C,"dose: 600.0 mg/kg/injection, vehicle: water",109 % of control
same,T/C,"dose: 1200.0 mg/kg/injection, vehicle: water",66 % of control
Nc1cc2c(cc1Br)-c1c(C(=O)O)cccc1C2O (configuration not stated),T/C,"dose: 150.0 mg/kg/injection, vehicle: sodium bicarbonate",74 % of control
same,T/C,"dose: 300.0 mg/kg/injection, vehicle: sodium bicarbonate",78 % of control
same,T/C,"dose: 600.0 mg/kg/injection, vehicle: sodium bicarbonate",68 % of control
same,T/C,"dose: 1200.0 mg/kg/injection, vehicle: sodium bicarbonate",56 % of control
NC(Cc1ccc(N(CCCl)Cc2ccccc2)cc1)C(=O)O (configuration not stated),T/C,[8],74 % of control
same,T/C,[9],32 % of control
same,T/C,[10],38 % of control
C/C(=N\NC(=S)N1CC2CCC(CC2)C1)c1cccc(C)n1,T/C,"dose: 12.5 mg/kg/injection, vehicle: saline with Tween-80",114 % of control
same,T/C,[11],81 % of control
O=C1CN(CCN2CC(=O)N(CN3CCOCC3)C(=O)C2)CC(=O)N1CN1CCOCC1,T/C,"dose: 37.5 mg/kg/injection, vehicle: saline with Tween-80",51 % of control
same,T/C,[3],60 % of control
CC(C)(C[NH-])C[NH-].[Cl][Pt+2][Cl],T/C,"dose: 1.5 mg/kg/injection, vehicle: water",40 % of control
same,T/C,"dose: 3.0 mg/kg/injection, vehicle: water",70 % of control
same,T/C,"dose: 6.0 mg/kg/injection, vehicle: water",62 % of control
same,T/C,"dose: 12.0 mg/kg/injection, vehicle: water",52 % of control
O=C1C2CC(Cl)C(SSC3CC4C(=O)N(SC(Cl)(Cl)C(Cl)Cl)C(=O)C4CC3Cl)CC2C(=O)N1SC(Cl)(Cl)C(Cl)Cl (configuration not stated),T/C,[11],123 % of control
same,T/C,[8],78 % of control
same,T/C,[9],98 % of control
same,T/C,[10],73 % of control
CN(C)/N=N/c1nc[nH]c1C(N)=O,T/C,"dose: 75.0 mg/kg/injection, vehicle: suspension in saline",11 % of control
same,T/C,"dose: 150.0 mg/kg/injection, vehicle: suspension in saline",48 % of control
same,T/C,"dose: 225.0 mg/kg/injection, vehicle: suspension in saline",8 % of control
CCC1(O)C(=O)OCc2c1cc1n(c2=O)Cc2cc3cc4c(cc3nc2-1)OCO4 (configuration not stated),T/C,[12],6 % of control
CNC(=O)OCc1nc(SC)n(C)c1COC(=O)NC,T/C,[1],156 % of control
same,T/C,[2],28 % of control
[Cl][Pt][Cl].[NH-]C(CO)C(=O)O (configuration not stated),T/C,"dose: 37.5 mg/kg/injection, vehicle: water",93 % of control
same,T/C,"dose: 75.0 mg/kg/injection, vehicle: water",247 % of control
same,T/C,[7],63 % of control
CC[C@@]1(O)C(=O)OCc2c1cc1n(c2=O)Cc2cc3ccccc3nc2-1,T/C,"dose: 2.0 mg/kg/injection, vehicle: saline with Tween-80",31 % of control
same,T/C,[12],29 % of control
same,T/C,"dose: 6.0 mg/kg/injection, vehicle: saline with Tween-80",-21 % of control
same,T/C,"dose: 8.0 mg/kg/injection, vehicle: saline with Tween-80",17 % of control
same,T/C,"dose: 10.0 mg/kg/injection, vehicle: saline with Tween-80",-80 % of control
same,T/C,"dose: 16.0 mg/kg/injection, vehicle: saline with Tween-80",12 % of control
N#CC(C#N)=NNc1ccc2cn[nH]c2c1,T/C,"dose: 50.0 mg/kg/injection, vehicle: Klucel (hydroxypropylcellulose) (HPC)",-6 % of control
same,T/C,"dose: 100.0 mg/kg/injection, vehicle: Klucel (hydroxypropylcellulose) (HPC)",117 % of control and 124 % of control
c1ccc(OCC2CO2)c(OCC2CO2)c1 (configuration not stated),T/C,[3],89 % of control
same,T/C,[4],-20 % of control
same,T/C,[5],9 % of control
COc1ccc2oc3c(ccc[n+]3C)c(=O)c2c1,T/C,[9],57 % of control
same,T/C,[10],38 % of control
same,T/C,"dose: 400.0 mg/kg/injection, vehicle: saline with Tween-80",32 % of control
CC[C@]1(O)C[C@H]2CN(CCc3c([nH]c4ccccc34)[C@@](C(=O)OC)(c3cc4c(cc3OC)N(C)[C@H]3[C@@](O)(C(=O)OC)[C@H](OC(C)=O)[C@]5(CC)C=CCN6CC[C@]43[C@@H]65)C2)C1,T/C,"dose: 0.67 mg/kg/injection, vehicle: Klucel (hydroxypropylcellulose) (HPC)",-2 % of control
same,T/C,"dose: 1.0 mg/kg/injection, vehicle: Klucel (hydroxypropylcellulose) (HPC)",-49 % of control
COC1CC2C=C(C)/C=C/C=C/C(=O)NC(c3ccccc3)C/C=C/CCC(O)CC(=O)C2=C1O (configuration not stated),T/C,"dose: 37.5 mg/kg/injection, vehicle: Klucel (hydroxypropylcellulose) (HPC)",17 % of control
same,T/C,"dose: 75.0 mg/kg/injection, vehicle: Klucel (hydroxypropylcellulose) (HPC)",115 % of control
same,T/C,[6],113 % of control
